Data reported in US20200223837A1, “BENZOFURAN AMIDES AND HETEROAROMATIC ANALOGUES THEREOF FOR USE IN THERAPY” (European Molecular Biology Laboratory, priority 2017, published 2020).

Legend:
[1] = test system: patient derived CLL samples; experiment: Growth inhibition of cells derived from patients with CLL; assay type: cell-based; settings: 27 patient derived CLL isolates; for EC50: Homo sapiens, read-out: median EC50
Procedure: HeLa, A549 and HCT116 cells were grown in high-glucose Dulbecco's Modified Eagle's Medium (DMEM, Sigma)+10% FBS+1% penicillin and streptomycin+1% L-glutamine, at 37° C. with 5% CO2 and 95% humidity. Cytotoxic screening of the ProQinase panel of 100 cell-lines was performed by ProQinase (Freiburg, Germany). Patient derived CLL isolates were prepared and screened as described by Dietrich et al. (S. Dietrich et al., J Clin Invest, 2018, 128(1), 427-445). Cell viability was determined after 48 hours using the ATP-based CellTiter Glo assay (Promega). Luminescence was measured with a Tecan Infinite F200 Microplate Reader (Tecan Group AG) and with an integration time of 0.2 seconds per well.
The response of 97 tumour samples derived from patients with CLL was investigated. All samples tumor cells were obtained from whole blood, subjected to Ficoll-Isopaque density centrifugation. CD19+B and CD3+ T cells were isolated by positive magnetic cell separation (Miltenyi Biotec). Sorted cells were checked for purity by fluorescence-activated cell sorting (FACS) with CD19/CD20 for healthy control samples and CD19/CD20/CD5 for CLL samples (BD Biosciences). Following sorting, all samples with a CD19/CD20/CD5 purity <98% were subjected to additional sorting, and the average final purity of all sorted samples was >99%. CLL samples with >[…] were not subject to purification.
Cells are incubated for three days with an eight-point three-fold titration series of the test compound from an initial concentration of 30 μM (2000 cells per well in a volume of 50 μl). Cellular viability is estimated by the addition of 25 μL of ATPlite (Perkin Elmer) with the resulting luminescence measured using an EnVision Xcite plate reader (Perkin Elmer).
In addition, the growth inhibitory response of a selection of 27 patient derived CLL isolates (S. Dietrich et al., J Clin Invest, 2018, 128(1), 427-445) against the compounds of examples 64 and 85 was evaluated using the procedure as described above.

EGR1 promoter = experiment: EGR1 reporter assay (luciferase) in genomically engineered HeLa cell line; assay type: cell-based; settings: Homo sapiens; EGR1 reporter HeLa cells, luciferase activity after 24 hours with compound
Summary of the method: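 HeLa cells with eGFP-P2A-luciferase knocked in by CRISPR behind the endogenous EGR1 promoter, seeded 2000/well in DMEM with 10% FCS for 24 h. Cells treated 24 h with an 11-point 1:3 series from 100 μM initial DMSO dilution. Readout: luciferase bioluminescence.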

pirin = biological target: T1, pirin (Homo sapiens, UniProt O00625); experiment: Nano differential scanning fluorimetry (NanoDSF), thermal melting of pirin; settings: 10 μM pirin in PBS, 20 μM test compound
T1 sequence (O00625 1-290): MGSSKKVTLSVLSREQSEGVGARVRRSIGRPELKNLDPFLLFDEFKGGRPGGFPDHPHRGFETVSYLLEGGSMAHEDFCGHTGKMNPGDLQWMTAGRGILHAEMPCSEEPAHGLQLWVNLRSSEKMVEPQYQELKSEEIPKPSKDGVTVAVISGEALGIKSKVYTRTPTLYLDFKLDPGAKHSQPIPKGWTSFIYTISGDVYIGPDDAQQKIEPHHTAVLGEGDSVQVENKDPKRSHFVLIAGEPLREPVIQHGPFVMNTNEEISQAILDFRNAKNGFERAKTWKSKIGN
Source text: NanoDSF is an advanced Differential Scanning Fluorimetry method for measuring protein stability using intrinsic tryptophan or tyrosine fluorescence. The fluorescence of the tryptophans and tyrosines in a protein is strongly dependent on their close surroundings. Changes in protein structure typically affect both the intensity and the emission wavelength especially of tryptophan fluorescence. By measuring fluorescence intensity at 330 nm and 350 nm, the change in fluorescence intensity and the shift of the fluorescence maximum upon unfolding can be used to detect thermal melting of the protein. Proteins are stabilized when associated with ligands and show a shift in their melting temperatures. NanoDSF has the advantages of being label free and observing the protein in solution.
A 10 μM solution of pirin in phosphate buffered saline, with or without 20 μM test compound, is subject to thermal denaturation under fluorescence monitoring using a Prometheus NT.48 instrument of NanoTemper Technologies. Unliganded pirin has a complex biphasic melting curve. […] If the test compound is a ligand to pirin, it adopts a single thermal transition some 10° C. above that of apopirin.

Microsomal stability = assay type: in vitro ADME; settings: mouse liver microsomes, 2 μM test compound, 37° C.
Procedure: Mouse hepatic microsomes were isolated from pooled (50), perfused livers of Balb/c male mice according to the standard protocol (Hill, J. R. in Current Protocols in Pharmacology 7.8.1-7.8.11, Wiley Interscience, 2003). The batch of microsomes was tested for quality control using Imipramine, Propranolol and Verapamil as reference compounds. Microsomal incubations were carried out in 96-well plates in 5 aliquots of 40 μL each (one for each time point). Liver microsomal incubation medium contained PBS (100 mM, pH 7.4), MgCl2 (3.3 mM), NADPH (3 mM), glucose-6-phosphate (5.3 mM), glucose-6-phosphate dehydrogenase (0.67 units/ml) with 0.42 mg of liver microsomal protein per ml. Control incubations were performed replacing the NADPH-cofactor system with PBS.
Test compound (2 μM, final solvent concentration 1.6%) is incubated with microsomes at 37° C., shaking at 100 rpm. Incubations are performed in duplicates. Five time points over 40 minutes are analyzed. The reactions are stopped by adding 12 volumes of 90% acetonitrile-water to incubation aliquots, followed by protein sedimentation by centrifuging at 5500 rpm for 3 minutes. Supernatants are analyzed using the HPLC system coupled with tandem mass spectrometer. The elimination constant (kel), half-life (t½) and intrinsic clearance (Clint) is determined in plot of In(AUC) versus time, using linear regression analysis.

| Structure (SMILES) | growth inhibitory response [1] | EC50 [1] | EC50 (EGR1 promoter) | increase in the Tm of melting (pirin) | microsomal stability (Microsomal stability) |
| --- | --- | --- | --- | --- | --- |
| O=C(Cc1coc2c(Cl)c(Cl)ccc12)Nc1ncc(C(F)(F)F)s1 [Example 85, 2-(6,7-Dichlorobenzofuran-3-yl)-N-[5-(trifluoromethyl)thiazol-2-yl]acetamide] | active against all isolates | 1.67 µM | 0.01 to 10 µM | approximately 11 °C | 113 min |
| Cc1cnc(NC(=O)Cc2coc3cc4c(cc23)CCC4)s1 [Example 64, 2-(6,7-Dihydro-5H-cyclopenta[f]benzofuran-3-yl)-N-(5-methylthiazol-2-yl)acetamide] | active against all isolates | 6 µM | 0.01 to 10 µM | approximately 11 °C | 10 min |
